Reference: patent publication US6258790A, “Antisense modulation of integrin α4 expression” (Isis Pharmaceuticals, Inc., priority 1999, dated 2001)
Values joined by “and” are separate entries in the source; they are usually repeats but may differ in a detail not shown here. Identical values can stand only once.

Tests used:
[1] = system: murine integrin α4 mRNA; test: Antisense inhibition of murine integrin α4 mRNA expression in P388D (IL-1) macrophage cells (RNA gel, PCR-labeled probe); assay type: cell-based, mouse; settings: 100 nM; for % Control (murine integrin α4 mRNA) / % Inhib (murine integrin α4 mRNA): Table 8, P388D (IL-1) cells, 3 ug/ml lipofectin; for activity in the mRNA screen: Table 8 assay; for % Control / % Inhib.: Table 9, averages of duplicate samples
Method: Oligonucleotides were initially screened in murine P388D (IL-1) macrophage cells (American Type Culture Collection, Manassas Va.) for 4 hours at an oligonucleotide concentration of 100 nM in 3 ug/ml lipofectin.

[2] = system: murine integrin α4; test: Antisense inhibition of murine integrin α4 protein expression in IC-21 macrophage cells (flow cytometry, CD49d-PE); assay type: cell-based, mouse; settings: for % Control (integrin α4 protein) / % Inhib (integrin α4 protein): Table 11
Method: Murine IC-21 macrophage cells (American Type Culture Collection, Manassas, Va.) were used for further study. Additional oligonucleotides were designed to target murine integrin α4. These are shown in Table 10; all 2' MOE nucleotides are shown in bold and remaining positions are 2' deoxy. All 2'-MOE cytosines in these compounds are 5' methylcytosines. IC-21 cells were seeded at 5×10^4 cell/well plates two days before assay. […] Wells were triplicates.
Cells (triplicates) were seeded at 2.5×10^4 cells/well in 24-well plates the day before treatment. Oligonucleotide concentrations were 0.2, 1, 5, 25 and 50 nM in 3 ug/ml LIPOFECTIN. Cells were harvested with 2 mM EDTA for 4 minutes, then 1 ml of 2% BSA, 0.2% azide was added per contents of each well.
IC-21 cells were treated with 0.3, 1, 3, 10 and 30 nM oligonucleotide with 3 ug/ml LIPOFECTIN for 4 hours. Cells were incubated for 24 hours, harvested with trypsin, stained with 2 ug/ml CD49d-PE and rat IgG2B as in previous examples.
These compounds were tested for ability to inhibit integrin α4 protein expression.

[3] = system: murine integrin α4 RNA; test: Dose response effect on integrin α4 RNA levels in IC-21 cells; assay type: cell-based, mouse; settings: for Percent inhib. (integrin α4 RNA) / Percent of control (integrin α4 RNA): Table 14, duplicate
Method: another dose response experiment was done to determine the IC50 of ISIS 16433 for inhibition of integrin α4 RNA. IC-21 cells were tested in duplicate with ISIS 16433 at 6.25, 12.5, 25 or 50 nM with 3 ug/ml LIPOFECTIN.
RNA was purified with Qiagen Qiashredder/RNEASY™ Kit according to manufacturer's directions. Probes were random primed using a prime-a-Gene Kit (Promega, Madison, Wis.).

[4] = system: murine integrin α4 mRNA; test: Antisense inhibition of murine integrin α4 mRNA expression in P388D (IL-1) macrophage cells (RNA gel, PCR-labeled probe); assay type: cell-based, mouse; settings: Table 9, averages of duplicate samples
[5] = system: human integrin α4; test: Inhibition of human integrin α4 protein levels by antisense oligonucleotides (LIPOFECTIN, flow cytometry with CD49d-FITC) in A375 melanoma cells; assay type: cell-based; settings: Table 24; A375 cells; lipofectin; as Example 8
[6] = system: human integrin α4; test: Integrin α4 protein expression in A375 cells after electroporation of oligonucleotide (flow cytometry); assay type: cell-based; settings: 24 hours
Method: A375 cells were treated with ISIS 107245, 107248, 107252, 107255 and 107259 by electroporation at 175 volts, r=1, c=1000, 0.2 ml Opti-MEM, 1×10^6 cells /ml, 2 mm gap electrode using a BTX Electro Cell Manipulator 600 (Genetronics, San Diego Calif.). Oligonucleotide concentrations were 1, 3, 10 and 30 μM. Cells were harvested 24 hours after oligonucleotide treatment and strained with 2 ug/ml CD49d-FITC for flow cytometry as in the previous examples.
ISIS 107248 was compared directly to ISIS 27104 for ability to inhibit integrin α4 expression in A375 melanoma cells. Oligonucleotides were electroporated into cells as in the previous example.

[7] = IC-21 cells, 25 nM, triplicates

15605 (antisense CCGGTGCTGGCAGGCGACAG; phosphorothioate DNA, further chemistry not given here) [compound 15605]
% Control (murine integrin α4 mRNA) [1]: 84% | % Inhib (murine integrin α4 mRNA) [1]: 16%

15606 (antisense GATGAAGTGCAGCAGCGTGT; phosphorothioate DNA, further chemistry not given here) [compound 15606]
% Control (murine integrin α4 mRNA) [1]: 72% | % Inhib (murine integrin α4 mRNA) [1]: 28%

16478 (GCCGACACCCGTTCGTTCGG; phosphorothioate DNA, further chemistry not given here) [compound 16478]
% Control (integrin α4 protein) [2, 7]: 92% | % of control ([2]; Table 12, 5 nM, triplicates): 95% | % Inhib. ([2]; Table 12, 25 nM, triplicates): 13% | % of control ([2]; Table 12, 25 nM, triplicates): 87% | % Inhib. ([2]; Table 12, 50 nM, triplicates): 16% | % of control ([2]; Table 12, 50 nM, triplicates): 84% | % of control ([2]; Table 13, 0.3 nM, 24 hours): 137% | % of control ([2]; Table 13, 1 nM, 24 hours): 131% | % of control ([2]; Table 13, 3 nM, 24 hours): 127% | % of control ([2]; Table 13, 10 nM, 24 hours): 130% | % of control ([2]; Table 13, 30 nM, 24 hours): 108% | Percent inhib. (integrin α4 RNA) ([3]; 6.25 nM): 25% | Percent of control (integrin α4 RNA) ([3]; 6.25 nM): 75% | Percent inhib. (integrin α4 RNA) ([3]; 12.5 nM): 40% | Percent of control (integrin α4 RNA) ([3]; 12.5 nM): 60% | Percent inhib. (integrin α4 RNA) ([3]; 25 nM): 76% | Percent of control (integrin α4 RNA) ([3]; 25 nM): 24% | Percent inhib. (integrin α4 RNA) ([3]; 50 nM): 74% | Percent of control (integrin α4 RNA) ([3]; 50 nM): 26%

15601 (antisense CACGCCCCGTTTCTGTGGCC; phosphodiester, 2'-MOE, further chemistry not given here) [compound 15601]
% Control (murine integrin α4 mRNA) [1]: 60% | % Inhib (murine integrin α4 mRNA) [1]: 40%

15608 (antisense CCGCAGCCATGCGCTCTTGG; phosphorothioate DNA, further chemistry not given here) [compound 15608]
% Control (murine integrin α4 mRNA) [1]: 16% | % Inhib (murine integrin α4 mRNA) [1]: 84% | activity in the mRNA screen [1]: most active | % Control [1]: 39% | % Inhib. [1]: 61% | % Control (integrin α4 protein) [2, 7]: 63% | % Inhib (integrin α4 protein) [2, 7]: 37% | % Control ([4]; 12.5 nM): 59% | % Inhib. ([4]; 12.5 nM): 41% | % Control ([4]; 25 nM): 29% | % Inhib. ([4]; 25 nM): 71% | % Control ([4]; 50 nM): 23% | % Inhib. ([4]; 50 nM): 77%

107255 (antisense AAGTCTAAGACTTCTCCAGT; chemistry not given here) [compound 107255]
% Control [5]: 36% | % Control ([6]; Table 25, 1 nM as printed): 50.6% | % Control ([6]; Table 25, 10 nM): 22.9% | % Control ([6]; Table 25, 30 nM): 19.4%

107259 (antisense GGAACACAGCCCGTAGGAAA; chemistry not given here) [compound 107259]
% Control [5]: 37% | % Control ([6]; Table 25, 1 nM as printed): 17.7% | % Control ([6]; Table 25, 10 nM): 42.9% | % Control ([6]; Table 25, 30 nM): 19.4%

15609 (antisense CACCTCGCTTCCGCAGCCAT; phosphorothioate DNA, further chemistry not given here) [compound 15609]
% Control (murine integrin α4 mRNA) [1]: 07% | % Inhib (murine integrin α4 mRNA) [1]: 93% | activity in the mRNA screen [1]: most active | % Control [1]: 57% | % Inhib. [1]: 43% | % Control (integrin α4 protein) [2, 7]: 57% | % Inhib (integrin α4 protein) [2, 7]: 43% | % Control ([4]; 12.5 nM): 54% | % Inhib. ([4]; 12.5 nM): 46% | % Control ([4]; 25 nM): 24% | % Inhib. ([4]; 25 nM): 76% | % Control ([4]; 50 nM): 28% | % Inhib. ([4]; 50 nM): 72%

15607 (antisense GGCCACTGACCAGAGTTGCA; phosphorothioate DNA, further chemistry not given here) [compound 15607]
% Control (murine integrin α4 mRNA) [1]: 26% | % Inhib (murine integrin α4 mRNA) [1]: 74% | activity in the mRNA screen [1]: most active | % Control [1]: 55% | % Inhib. [1]: 45% | % Control (integrin α4 protein) [2, 7]: 82% | % Inhib (integrin α4 protein) [2, 7]: 18% | % Control ([4]; 12.5 nM): 78% | % Inhib. ([4]; 12.5 nM): 22% | % Control ([4]; 25 nM): 67% | % Inhib. ([4]; 25 nM): 33% | % Control ([4]; 50 nM): 50% | % Inhib. ([4]; 50 nM): 50%

16433 (CCGCAGCCATGCGCTCTTGG; phosphorothioate, 2'-MOE/deoxy, further chemistry not given here) [compound 16433]
IC50 ([2]; IC-21 cells): ~1 nM | inhibition of protein levels ([2]; IC-21 cells, 30 nM): inhibit protein levels to below basal levels | % Control (integrin α4 protein) [2, 7]: 23% | % Inhib (integrin α4 protein) ([2]; IC-21 cells, 25 nM, triplicates, 0.025 µM): 77% and > 50% | % Inhib. ([2]; Table 12, 0.2 nM, triplicates): 15% | % of control ([2]; Table 12, 0.2 nM, triplicates): 85% | % Inhib. ([2]; Table 12, 1 nM, triplicates): 38% | % of control ([2]; Table 12, 1 nM, triplicates): 62% | % Inhib. ([2]; Table 12, 5 nM, triplicates): 63% | % of control ([2]; Table 12, 5 nM, triplicates): 37% | % Inhib. ([2]; Table 12, 25 nM, triplicates): 80% | % of control ([2]; Table 12, 25 nM, triplicates): 20% | % Inhib. ([2]; Table 12, 50 nM, triplicates): 70% | % of control ([2]; Table 12, 50 nM, triplicates): 30% | % Inhib. ([2]; Table 13, 0.3 nM, 24 hours): 11% | % of control ([2]; Table 13, 0.3 nM, 24 hours): 89% | % Inhib. ([2]; Table 13, 1 nM, 24 hours): 32% | % of control ([2]; Table 13, 1 nM, 24 hours): 68% | % Inhib. ([2]; Table 13, 3 nM, 24 hours): 75% | % of control ([2]; Table 13, 3 nM, 24 hours): 25% | % Inhib. ([2]; Table 13, 10 nM, 24 hours): 97% | % of control ([2]; Table 13, 30 nM, 24 hours): -14% | % Control ([2]; Table 16, 0.3 nM): 146% | % Control ([2]; Table 16, 1 nM): 94% | % Control ([2]; Table 16, 3 nM): 64% | % Inhib. ([2]; Table 16, 3 nM): 36% | % Control ([2]; Table 16, 10 nM): 02% | % Inhib. ([2]; Table 16, 10 nM): 98% | IC50 ([3]; IC-21 cells, read-out: IC50 for integrin α4 RNA reduction): ~10 nM | Percent inhib. (integrin α4 RNA) ([3]; 6.25 nM): 41% | Percent of control (integrin α4 RNA) ([3]; 6.25 nM): 59% | Percent inhib. (integrin α4 RNA) ([3]; 12.5 nM): 44% | Percent of control (integrin α4 RNA) ([3]; 12.5 nM): 46% | Percent inhib. (integrin α4 RNA) ([3]; 25 nM): 72% | Percent of control (integrin α4 RNA) ([3]; 25 nM): 28% | Percent inhib. (integrin α4 RNA) ([3]; 50 nM): 57% | Percent of control (integrin α4 RNA) ([3]; 50 nM): 43%

15602 (antisense CACGCCCCGTTTCTGTGGCC; phosphorothioate DNA, further chemistry not given here) [compound 15602]
% Control (murine integrin α4 mRNA) [1]: 48% | % Inhib (murine integrin α4 mRNA) [1]: 52%

107245 (antisense GTTGATATAACTCCAACTGT; chemistry not given here) [compound 107245]
% Control [5]: 35% | % Control ([6]; Table 25, 1 nM as printed): 27.1% | % Control ([6]; Table 25, 10 nM): 64.4% | % Control ([6]; Table 25, 30 nM): 30.3%

107252 (antisense AAGAGTAATCATTGCTGAGA; chemistry not given here) [compound 107252]
% Control [5]: 35% | % Control ([6]; Table 25, 1 nM as printed): 17.4% | % Control ([6]; Table 25, 10 nM): 7.9% | % Control ([6]; Table 25, 30 nM): 2.9%

15600 (antisense CACGCCCCGTTTCTGTGGCC; phosphorothioate, 2'-MOE, further chemistry not given here) [compound 15600]
% Control (murine integrin α4 mRNA) [1]: 93% | % Inhib (murine integrin α4 mRNA) [1]: 07%

15603 (antisense GGATGCTTCAGGCTCTGGCC; phosphorothioate DNA, further chemistry not given here) [compound 15603]
% Control (murine integrin α4 mRNA) [1]: 38% | % Inhib (murine integrin α4 mRNA) [1]: 62%

15604 (antisense GGAGCGATCGTAGTGGCCAG; phosphorothioate DNA, further chemistry not given here) [compound 15604]
% Control (murine integrin α4 mRNA) [1]: 134%
